{"source": "patent US6939865B2", "about": "“Pharmaceutical dronedarone composition for parenteral administration” (Sanofi-Aventis, priority 2000, dated 2005)", "key": {"male rats": {"tested_on": "male rats", "test": "Local tolerance in animals (intravenous injection in caudal vein)", "type": "in vivo", "conditions": "several days", "description": "Tests were carried out for the purpose of evaluating the local tolerance of various aqueous compositions comprising dronedarone hydrochloride or only the corresponding vehicle as placebo.\nTo this end, a dose of one the aqueous compositions hereinbelow was administered daily for 5 days via the intravenous route to batches of 5 male rats. The injection was made in the caudal vein, preferably in the distal region, then in the median region and finally in the proximal region. The animals were then sacrificed on the 8th day and the tails were removed for the purpose of possible microscopic examination."}, "[1]": {"test": "Aqueous solubility of dronedarone hydrochloride", "type": "physicochemical", "description": "As indicated above, the above β-cyclodextrin derivatives, when they are used in combination with an appropriate buffer, for example a phosphate buffer, in the compositions of the invention, make it possible in particular to increase the aqueous solubility of dronedarone or of its pharmaceutically acceptable salts."}, "[2]": {"test": "Surface tension in aqueous solution (surfactant properties)", "type": "physicochemical", "conditions": "with or without phosphate buffer", "description": "This surfactant nature moreover proves to be as powerful in the presence as in the absence of a phosphate buffer and can be held as being partially responsible for a self-aggregation of dronedarone molecules in aqueous solution. In fact, this supramolecular organization in solution is due to the formation of dimers positioned head to tail and stacked in superimposed layers. These dimers, when they are administered by injection, lead to rupturing of the cell membrane and, consequently, to the appearance of inflammation at the injection site. Generally, these surfactant properties of dronedarone can be regarded as responsible for poor tolerance of the composition in which they are present."}}, "note": "Where a name gives a salt, the structure may show the parent alone. Read-outs that look alike come from different tables or passages of the source.", "data": [{"compound": "CCCCc1oc2ccc(NS(C)(=O)=O)cc2c1C(=O)c1ccc(OCCCN(CCCC)CCCC)cc1", "note": "[dronedarone hydrochloride, 2-butyl-3-(4-[[3-(dibutylamino)propoxy]]benzoyl)-5-(methanesulphonamido)benzofuran]", "values": [{"measurement": "tolerance at the injection site", "setting": "male rats; aqueous formulation 1.065 mg/ml dronedarone hydrochloride with hydroxypropyl-β-cyclodextrin", "value": "marked intolerance"}, {"measurement": "local tolerance", "setting": "male rats; aqueous formulation 1.065 mg/ml dronedarone hydrochloride with phosphate buffer", "value": "poor local tolerance"}, {"measurement": "solubility", "setting": "[1]; aqueous medium, aqueous buffer, ambient temperature, pH=4.85, read-out: solubility in an aqueous medium", "value": 500, "unit": "µg/mL"}, {"measurement": "solubility", "setting": "[1]; mono-sodium phosphate buffer (NaH2PO4), aqueous buffer, ambient temperature, pH range from 1.5 to 5, read-out: solubility in the presence of a mono-sodium phosphate buffer (NaH2PO4)", "value": "2000 to 2250", "unit": "µg/mL"}, {"measurement": "solubility in an aqueous medium", "setting": "[1]; pH range from 1.5 to 5", "value": "virtually constant"}, {"measurement": "solubility in an aqueous medium", "setting": "[1]; pH values of greater than 5.5", "value": "virtually negligible"}, {"measurement": "solubility in the presence of a mono-sodium phosphate buffer (NaH2PO4)", "setting": "[1]; pH=5.5", "value": "virtually zero"}, {"measurement": "solubility", "setting": "[1]; phosphate buffer with hydroxypropyl-β-cyclodextrin, aqueous with cosolvent or surfactant or cyclodextrin, 100 mmolar phosphate buffer and 5% of hydroxypropyl-β-cyclodextrin, read-out: solubility", "value": "~6500", "unit": "µg/mL"}]}, {"compound": "CCCCc1oc2ccc(NS(C)(=O)=O)cc2c1C(=O)c1ccc(OCCCN(CCCC)CCCC)cc1", "note": "[dronedarone, 2-butyl-3-(4-[[3-(dibutylamino)propoxy]]benzoyl)-5-(methanesulphonamido)benzofuran]", "values": [{"measurement": "effect on surface tension", "setting": "[2]", "value": "marked decrease"}]}]}
